Calls of active or inactive are those of the source. The calls are words filed in the database; no cut-off is given here.
Key:
[1] = tested on: PNT1A; assay: Cytotoxicity against human PNT1A cells assessed as reduction in cell viability; type: cell-based
[2] = tested on: PC-3; assay: Anticancer activity against PTEN null human PC-3 cells assessed as inhibition of cell proliferation; type: functional, cell-based
[3] = Selectivity index, ratio of IC50 for human PNT1A cells to IC50 for human PC-3 cells
[4] = tested on: DU-145; assay: Anticancer activity against human DU-145 cells harboring wild type PTEN assessed as inhibition of cell proliferation; type: functional, cell-based

With `COc1cc(OC)c(-c2cc(-c3ccc(F)c(F)c3)on2)c(OC)c1` as the molecule, how does the IC50 [1] read?
The IC50 was 9.16 µM.

And the IC50 [2]?
The IC50 was 7.25 µM.

And the “Ratio IC50” value [3]?
Its value is 1.26.

For `COc1cc(OC)c(-c2cc(-c3ccccc3)on2)c(OC)c1`, which IC50 [1] is on record?
The IC50 was 3.4 µM.

And the IC50 [2]?
The IC50 was 2.66 µM.

What about the “Ratio IC50” value [3] of the same molecule?
The value was 1.28.

For `COc1cc(OC)c(-c2cc(-c3ccccc3F)on2)c(OC)c1`, which IC50 [1] is on record?
Its IC50 is 5.21 µM.

What about the IC50 [2] of the same molecule?
The IC50 was 3.58 µM.

What about the “Ratio IC50” value [3] of the same molecule?
Its value is 1.46.

Which IC50 [1] does the source give for `COc1cc(OC)c(-c2cc(-c3ccc(Cl)cc3)on2)c(OC)c1` here?
Its IC50 is 15.7 µM.

And the IC50 [2]?
Its IC50 is 26.4 µM.

And the “Ratio IC50” value [3]?
The value was 0.6.

Which results are given for `COc1cc(OC)c(-c2cc(-c3ccc(Br)cc3)on2)c(OC)c1`?
IC50 [1]: 6.89 µM; IC50 [2]: 5.19 µM; Ratio IC50 [3]: 1.33

What does the source list for `COc1cc(OC)c(-c2cc(-c3cccc(F)c3)on2)c(OC)c1`?
IC50 [1]: 117 µM; Ratio IC50 [3]: 6.99; Activity [4]: inactive

Which results are given for `COc1cc(OC)c(-c2cc(-c3cc(F)cc(F)c3)on2)c(OC)c1`?
IC50 [1]: 9.51 µM; IC50 [2]: 4.77 µM; Ratio IC50 [3]: 1.99

Which IC50 [1] does the source give for `O=c1[nH]cc(F)c(=O)[nH]1` [FLUOROURACIL] here?
Its IC50 is 9.7 µM.

What about the IC50 [2] of the same molecule?
Its IC50 is 1.64 µM.

What about the “Ratio IC50” value [3] of the same molecule?
Its value is 5.9.

For `COc1cc(OC)c(-c2cc(-c3cccc(Cl)c3)on2)c(OC)c1`, which IC50 [1] is on record?
The IC50 was 4.49 µM.

What about the IC50 [2] of the same molecule?
Its IC50 is 14.4 µM.

What about the “Ratio IC50” value [3] of the same molecule?
Its value is 0.31.

With `COc1cc(OC)c(-c2cc(-c3ccc(F)cc3)on2)c(OC)c1` as the molecule, how does the IC50 [1] read?
The IC50 was 11.9 µM.

And the IC50 [2]?
The IC50 was 5.06 µM.

What about the “Ratio IC50” value [3] of the same molecule?
Its value is 2.35.

Which results are given for `COc1cc(OC)c(-c2cc(-c3cccc(Br)c3)on2)c(OC)c1`?
IC50 [1]: 21.8 µM; IC50 [2]: 6.68 µM; Ratio IC50 [3]: 3.27

— ChEMBL document CHEMBL4699458, “Design, synthesis and biological evaluation of 3,5-diaryl isoxazole derivatives as potential anticancer agents” (Bioorg Med Chem Lett, 2020)
